Reference: patent publication US20130210807A1, “Tricyclic Compounds as Allosteric Modulators of Metabotropic Glutamate Receptors” (priority 2010, published 2013)

Biological target: T1, human mGluR4 (Homo sapiens, UniProt Q14833)
T1 construct: expressed in transfected cells; host or cells: HEK-293
Assay: mGluR4 Assay on HEK-Expressing Human mGluR4 (FLIPR Ca2+ fluorescence, PAM activity)
Assay type: cell-based
Conditions: human mGluR4 HEK-293 cells
Protocol: mGluR4 Assay on HEK-Expressing Human mGluR4
Since, as explained above, the compounds of the present invention are positive allosteric modulators of mGluR4 receptors, which activity was assayed by detecting changes in intracellular Ca^+2 ion concentration using a Ca^+2-sensitive fluorescent dye (Fluo4-(AM)) and a fluorometric imaging plate reader (FLIPR, Molecular Devices, Sunnyvale, Calif.) in accordance with the manufacturers instructions.
Accordingly, 24 hours prior to carrying out an analysis, human mGluR4 HEK-293 cells were plated out in black-walled, clear-bottomed, poly-L-ornithine-coated 384-well plates at a density of 25,000 cells/well in a glutamine/glutamate-free DMEM medium containing fetal bovine serum (10%), penicillin (100 units/mL) and streptomycin (100 micrograms/mL) at 37° C. under 5% CO2. On the day of the assay, the medium was aspirated and the cells were loaded with a 3 micro-molar solution of Fluo4-AM (LuBioScience, Lucerne, Switzerland) in 0.03% pluronic acid. After maintaining the plate 1 hour at 37° C. under 5% CO2 the non-incorporated dye was removed by washing the cell plate with the assay buffer and the cells were left in the dark at room temperature for six hours before evaluating. All assays were performed in a pH 7.4 buffered-solution containing 20 mM HEPES, 142 mM NaCl, 6 mM KCl, 1 mM MgSO4, 1 mM CaCl2, 0.125 mM sulfapyrazone, and 1% glucose.
Basal fluorescence was recorded over 10 seconds, then aliquots of various concentrations of a compound of the invention were added to the cells. Changes in fluorescence level were first monitored for 180 seconds in order to detect any agonist activity attributable to the compound being assayed. Then the cells were stimulated for an additional 110 seconds by that concentration of glutamate yielding 25% of the maximal response to glutamate (EC25). Concentration-response curves of compounds of the invention were generated using Prism GraphPad software (Graph Pad Inc., San Diego, USA). Curves generated were fitted to a four-parameter logistic equation allowing the determination of EC50 values:
Y=Bottom+(Top−Bottom)/(1+10^logEC^50-^X)*Hill Slope.
For each sample assayed, at least three independent measurements were performed. EC50 values thus determined are reported for each of the compounds of the invention in the respective Tables 1 to 3 herein above.

[1] = Table I, Fluo4-AM/FLIPR, stimulated with glutamate EC25
[2] = Table II, Fluo4-AM/FLIPR, stimulated with glutamate EC25

T1 sequence (Q14833 33-912): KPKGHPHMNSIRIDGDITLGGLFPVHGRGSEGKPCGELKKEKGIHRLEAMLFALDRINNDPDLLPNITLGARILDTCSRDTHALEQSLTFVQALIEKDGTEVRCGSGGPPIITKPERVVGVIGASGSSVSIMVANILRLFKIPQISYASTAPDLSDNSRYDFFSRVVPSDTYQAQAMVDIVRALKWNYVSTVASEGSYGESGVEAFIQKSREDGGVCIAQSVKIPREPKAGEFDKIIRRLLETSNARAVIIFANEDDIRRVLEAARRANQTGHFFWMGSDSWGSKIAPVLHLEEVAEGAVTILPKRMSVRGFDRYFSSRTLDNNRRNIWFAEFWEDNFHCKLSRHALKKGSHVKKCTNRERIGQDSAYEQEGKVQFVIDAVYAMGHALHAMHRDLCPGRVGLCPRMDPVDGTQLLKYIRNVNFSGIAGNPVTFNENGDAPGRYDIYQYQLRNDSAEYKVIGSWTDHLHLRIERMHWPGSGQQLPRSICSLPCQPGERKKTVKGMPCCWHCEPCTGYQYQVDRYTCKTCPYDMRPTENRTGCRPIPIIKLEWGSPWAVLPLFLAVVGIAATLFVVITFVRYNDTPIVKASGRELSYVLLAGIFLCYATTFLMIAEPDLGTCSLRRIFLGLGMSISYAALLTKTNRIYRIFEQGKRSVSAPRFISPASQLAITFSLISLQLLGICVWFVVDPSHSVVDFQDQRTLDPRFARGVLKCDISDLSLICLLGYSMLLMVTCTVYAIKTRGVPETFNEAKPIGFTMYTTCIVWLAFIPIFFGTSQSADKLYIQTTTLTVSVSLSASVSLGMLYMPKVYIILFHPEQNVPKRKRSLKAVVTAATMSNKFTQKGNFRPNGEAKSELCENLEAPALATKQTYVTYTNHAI

Row | EC50 [1] [nM] | EC50 [2] [nM] | Structure (SMILES) | further results
1 | 36 | – | Cc1ccnc(Nc2nc3c(s2)CC(C)c2[nH]ncc2-3)n1 (stereo not drawn) [Cmpd 10, 5-methyl-N-(4-methylpyrimidin-2-yl)-5,6-dihydro-4H-[1,3]thiazolo[4,5-e]indazol-2-amine] | –
2 | – | 121 | Cc1ccnc(Nc2nc3c(s2)C(C)OC(C)c2[nH]ncc2-3)n1 (stereo not drawn) [Cmpd 24, 4,6-dimethyl-N-(4-methylpyrimidin-2-yl)-6,7-dihydro-4H-pyrazolo[4′,3′:5,6]oxepino-[4,3-d][1,3]thiazol-2-amine] | –
3 | – | 39 | Fc1cnc(Nc2nc3c(s2)CCCc2[nH]ncc2-3)nc1 [Cmpd 29, N-(5-fluoropyrimidin-2-yl)-4,5,6,7-tetrahydropyrazolo[3′,4′:6,7]cyclohepta[1,2-d][1,3]thiazol-2-amine] | –
4 | – | 28 | COc1ccnc(Nc2nc3c(s2)COCc2[nH]ncc2-3)n1 [Cmpd 19, N-(4-methoxypyrimidin-2-yl)-6,7-dihydro-4H-pyrazolo[4′,3′:5,6]oxepino[4,3-d][1,3]thiazol-2-amine] | –
5 | – | 7 | c1cnc(Nc2nc3c(s2)COCc2[nH]ncc2-3)nc1 [Cmpd 16, N-(pyrimidin-2-yl)-6,7-dihydro-4H-pyrazolo[4′,3′:5,6]oxepino[4,3-d][1,3]thiazol-2-amine] | –
6 | – | – | Cc1nc(Nc2nc3c(s2)COC(C)c2[nH]ncc2-3)ns1 (stereo not drawn) [Cmpd 38] | EC50 (text b34, glutamate EC25): 70 nM
7 | – | 20 | Cc1ccnc(Nc2nc3c(s2)CC(F)Cc2[nH]ncc2-3)n1 (stereo not drawn) [Cmpd 40] | –
8 | – | 10 | Cc1ccnc(Nc2nc3c(s2)COCc2[nH]ncc2-3)n1 [Cmpd 17, N-(4-methylpyrimidin-2-yl)-6,7-dihydro-4H-pyrazolo[4′,3′:5,6]oxepino[4,3-d][1,3]thiazol-2-amine] | –
9 | 326 | – | Cc1ccnc(Nc2nc3c(s2)C(C)(C)Cc2[nH]ncc2-3)n1 [Cmpd 1, 4,4-dimethyl-N-(4-methylpyrimidin-2-yl)-5,6-dihydro-4H-[1,3]thiazolo[4,5-e]indazol-2-amine] | –
10 | 645 | – | Cc1nc(Nc2nc3c(s2)C(C)(C)Cc2[nH]ncc2-3)ncc1F [Cmpd 5, N-(5-fluoro-4-methylpyrimidin-2-yl)-4,4-dimethyl-5,6-dihydro-4H-[1,3]thiazolo[4,5-e]indazol-2-amine] | –
11 | 2 | – | CC1Cc2sc(Nc3ncccn3)nc2-c2cn[nH]c21 (stereo not drawn) [Cmpd 9, 5-methyl-N-(pyrimidin-2-yl)-5,6-dihydro-4H-[1,3]thiazolo[4,5-e]indazol-2-amine] | –
12 | 9 | – | c1cnc(Nc2nc3c(ccc4[nH]ncc43)s2)nc1 [Cmpd 3, N-(pyrimidin-2-yl)-6H-[1,3]thiazolo[4,5-e]indazol-2-amine] | –
13 | – | 2380 | Cc1ccnc(Nc2nc3c(s2)CN(C)Cc2[nH]ncc2-3)n1 [Cmpd 28, 5-methyl-N-(4-methylpyrimidin-2-yl)-4,5,6,7-tetrahydropyrazolo[3,4-c][1,3]thiazolo[4,5-e]azepin-2-aminee] | –
14 | – | 994 | c1cnc(Nc2nc3c(s2)CNCc2[nH]ncc2-3)nc1 [Cmpd 27, N-(pyrimidin-2-yl)-4,5,6,7-tetrahydropyrazolo[3,4-c][1,3]thiazolo[4,5-e]azepin-2-amine] | –
15 | 93 | – | Fc1cnc(Nc2nc3c(s2)C2(CC2)Cc2[nH]ncc2-3)nc1 [Cmpd 13, N-(5-fluoropyrimidin-2-yl)-5′,6′-dihydrospiro[cyclopropane-1,4′-[1,3]thiazolo[4,5-e]indazol]-2′-amine] | –
16 | 35 | – | c1cnc(Nc2nc3c(s2)C2(CC2)Cc2[nH]ncc2-3)nc1 [Cmpd 12, N-(pyrimidin-2-yl)-5′-6′-dihydrospiro[cyclopropane-1,4′-[1,3]thiazolo[4,5-e]indazol]-2′-amine] | –
17 | – | 27 | Cc1nc(Nc2nc3c(s2)COC(C)c2[nH]ncc2-3)ncc1F (stereo not drawn) [Cmpd 21, N-(5-Fluoro-4-methylpyrimidin-2-yl)-6-methyl-6,7-dihydro-4H-pyrazolo[4′,3′:5,6]oxepino[4,3-d][1,3]thiazol-2-amine] | –
18 | – | 186 | Cc1ccnc(Nc2nc3c(s2)C(C)OCc2[nH]ncc2-3)n1 (stereo not drawn) [Cmpd 23, 4-methyl-N-(4-methylpyrimidin-2-yl)-6,7-dihydro-4H-pyrazolo[4′,3′:5,6]oxepino[4,3-d][1,3]thiazol-2-amine] | –
19 | 1 | – | Brc1cc2sc(Nc3ncccn3)nc2c2cn[nH]c12 [Cmpd 6, 5-bromo-N-(pyrimidin-2-yl)-6H-[1,3]thiazolo[4,5-e]indazol-2-amine] | –
20 | – | 173 | CCc1ccnc(Nc2nc3c(s2)COC(C)c2[nH]ncc2-3)n1 (stereo not drawn) [Cmpd 20, 6-Methyl-N-[4-(ethyl)pyrimidin-2-yl]-6,7-dihydro-4H-pyrazolo[4′,3′:5,6]oxepino[4,3-d][1,3]thiazol-2-amine] | –
21 | – | 3 | Cc1ccnc(Nc2nc3c(s2)COC(C)c2[nH]ncc2-3)n1 (racemic) [Cmpd 18, N-(4-methylpyrimidin-2-yl)-6-methyl-6,7-dihydro-4H-pyrazolo[4′,3′:5,6]oxepino[4,3-d][1,3]-thiazol-2-amine] | –
22 | 545 | – | Cc1ccnc(Nc2nc3c(s2)C2(CC2)Cc2[nH]ncc2-3)n1 [Cmpd 11, N-(4-methylpyrimidin-2-yl)-5′,6′-dihydrospiro[cyclopropane-1,4′-[1,3]thiazolo[4,5-e]indazol]-2′-amine] | –
23 | – | 56 | Cc1ccnc(Nc2nc3c(s2)CCC(F)(F)c2[nH]ncc2-3)n1 [Cmpd 34, 6,6-difluoro-N-(4-methylpyrimidin-2-yl)-4,5,6,7-tetrahydropyrazolo[3′,4′:6,7]cyclohepta[1,2-d][1,3]thiazol-2-amine] | –
24 | 2 | – | Clc1cc2sc(Nc3ncccn3)nc2c2cn[nH]c12 [Cmpd 7, 5-chloro-N-(pyrimidin-2-yl)-6H-[1,3]thiazolo[4,5-e]indazol-2-amine] | –
25 | – | 8 | Fc1cnc(Nc2nc3c(s2)COCc2[nH]ncc2-3)nc1 [Cmpd 15, N-(5-fluoropyrimidin-2-yl)-6,7-dihydro-4H-pyrazolo[4′,3′:5,6]oxepino[4,3-d][1,3]thiazol-2-amine] | –
26 | – | 1420 | c1cnc(Nc2nc3c(s2)Cc2[nH]ncc2-3)nc1 [Cmpd 14, N-(pyrimidin-2-yl)-1,7-dihydropyrazolo[3′,4′:4,5]cyclopenta[1,2-d][1,3]thiazol-5-amine] | –
27 | 129 | – | Cc1ccnc(Nc2nc3c(cc(C)c4[nH]ncc43)s2)n1 [Cmpd 8, 5-methyl-N-(4-methylpyrimidin-2-yl)-6H-[1,3]thiazolo[4,5-e]indazol-2-amine] | –
28 | – | 1500 | Cc1ccnc(Nc2nc3c(s2)CCC(=O)c2[nH]ncc2-3)n1 [Cmpd 36, 2-[(4-methylpyrimidin-2-yl)amino]-4,7-dihydropyrazolo[3′,4′:6,7]cyclohepta[1,2-d][1,3]thiazol-6(5H)-one] | –
29 | 753 | – | CC1(C)Cc2[nH]ncc2-c2nc(Nc3ncc(F)cn3)sc21 [Cmpd 4, N-(5-fluoropyrimidin-2-yl)-4,4-dimethyl-5,6-dihydro-4H-[1,3]thiazolo[4,5-e]indazol-2-amine] | –
30 | 28 | – | Cc1ccnc(Nc2nc3c(ccc4[nH]ncc43)s2)n1 [Cmpd 2, N-(4-methylpyrimidin-2-yl)-6H-[1,3]thiazolo[4,5-e]indazol-2-amine] | –
